Measurements: PMC9454457 (Journal of Nuclear Medicine, 2022)
Like-named read-outs stand apart in the source and are kept apart here.

Columns and labels:
[1] = Biodistribution in PC-3 tumor-bearing CB17-SCID mice; type: in vivo; conditions: 24 h after injection; for tissue uptake at 24 h: CB17-SCID, mouse, intravenous, total radioactivity
Method: A detailed description of tumor inoculation is provided in the supplemental materials. Approximately 2–5 MBq (100 pmol, 150 μL) of the ^177Lu-labeled GRPR ligands were injected into the tail vein of anesthetized (2% isoflurane) PC-3 tumor–bearing mice (biodistribution, n = 4; imaging, n = 1).
For biodistribution studies, organs were removed, weighed, and measured in a γ-counter (Perkin Elmer) after euthanasia at 24 h after injection.
For all competition studies, 3.62 mg/kg (40 nmol) of ^natLu-RM2 (10^−3 M in phosphate-buffered saline) were coadministered.

[2] = In vivo metabolic stability in murine plasma and urine; parameters: species or system CB17-SCID mice; conditions: 30 min after injection, n = 3
Method: Approximately 30–40 MBq (1 nmol, 150 μL) of the ^177Lu-labeled compounds were injected into the tail vein of anesthetized CB17-SCID mice (n = 3). After euthanasia at 30 min after injection, blood and urine samples were collected. Blood proteins were precipitated by treatment with ice-cold MeCN (v/v = 1/1), followed by centrifugation (13,000 rpm, 20 min). The supernatants were decanted and further centrifuged (13,000 rpm, 10 min) using a Costar Spin-X centrifuge tube filter (0.45 μm). The filtrated plasma samples and the urine samples were analyzed using radio–RP-HPLC.
(§1) FIGURE 2. Preclinical data of ^nat/177Lu-RM2 (red), ^nat/177Lu-NeoBOMB1 (gray), ^nat/177Lu-AMTG (green), and ^nat/177Lu-AMTG2 (blue). (A) Affinity data on PC-3 and T-47D cells (1.5 × 10^5 cells/mL/well) using 3-^125I-D-Tyr^6-MJ9 (0.2 nM/well) as radiolabeled reference (2 h, room temperature, Hanks’ balanced salt solution plus 1% bovine serum albumin [v/v]). (B) GRPR-mediated internalization (0.25 pmol/well) on PC-3 cells as percentage of applied activity (incubation at 37°C for 1 h, Dulbecco modified Eagle medium/F-12 plus 5% bovine serum albumin [v/v], 1.5 × 10^5 cells/mL/well). Data were corrected for nonspecific binding (10^−3 M ^natLu-RM2). (C) Lipophilicity at pH 7.4 (logD7.4). (D) Metabolic stability in vitro in human plasma (left) (37°C, 72 ± 2 h; n = 4), and metabolic stability in vivo in murine plasma (middle) and murine urine (right) at 30 min after injection (n = 3). Data are expressed as mean ± SD.

[3] = In vitro metabolic stability in human plasma; type: in vitro ADME; conditions: 37°C, 72 ± 2 h, n = 4
Method: Metabolic stability in vitro was determined through a procedure published by Linder et al. that was slightly modified ([16]). Immediately after labeling, 200 μL of human plasma were added and the mixture was incubated at 37°C for 72 ± 2 h. Proteins were precipitated by treatment with ice-cold EtOH (150 μL) and ice-cold MeCN (450 μL), followed by centrifugation (13,000 rpm, 20 min). The supernatants were decanted and further centrifuged (13,000 rpm, 10 min) using a Costar Spin-X (Corning) centrifuge tube filter (0.45 μm). The filtrated plasma samples were analyzed using radio–RP-HPLC.
as §1

[4] = adrenal, 100 pmol, 100 pmol, n = 4, read-out: Biodistribution, Adrenal
[5] = adrenal, 3.62 mg/kg, coinjection of natLu-RM2 3.62 mg/kg, n = 3, read-out: Biodistribution, Adrenal, competition study
[6] = blood, 100 pmol, 100 pmol, n = 4, read-out: Biodistribution, Blood
[7] = blood, 3.62 mg/kg, coinjection of natLu-RM2 3.62 mg/kg, n = 3, read-out: Biodistribution, Blood, competition study
[8] = bone, 100 pmol, 100 pmol, n = 4, read-out: Biodistribution, Bone
[9] = bone, 3.62 mg/kg, coinjection of natLu-RM2 3.62 mg/kg, n = 3, read-out: Biodistribution, Bone, competition study
[10] = heart, 100 pmol, 100 pmol, n = 4, read-out: Biodistribution, Heart
[11] = heart, 3.62 mg/kg, coinjection of natLu-RM2 3.62 mg/kg, n = 3, read-out: Biodistribution, Heart, competition study
[12] = intestine, 100 pmol, 100 pmol, n = 4, read-out: Biodistribution, Intestine
[13] = intestine, 3.62 mg/kg, coinjection of natLu-RM2 3.62 mg/kg, n = 3, read-out: Biodistribution, Intestine, competition study
[14] = kidney, 100 pmol, 100 pmol, n = 4, read-out: Biodistribution, Kidney
[15] = kidney, 3.62 mg/kg, coinjection of natLu-RM2 3.62 mg/kg, n = 3, read-out: Biodistribution, Kidney, competition study
[16] = liver, 100 pmol, 100 pmol, n = 4, read-out: Biodistribution, Liver
[17] = liver, 3.62 mg/kg, coinjection of natLu-RM2 3.62 mg/kg, n = 3, read-out: Biodistribution, Liver, competition study
[18] = lung, 100 pmol, 100 pmol, n = 4, read-out: Biodistribution, Lung
[19] = lung, 3.62 mg/kg, coinjection of natLu-RM2 3.62 mg/kg, n = 3, read-out: Biodistribution, Lung, competition study
[20] = muscle, 100 pmol, 100 pmol, n = 4, read-out: Biodistribution, Muscle
[21] = muscle, 3.62 mg/kg, coinjection of natLu-RM2 3.62 mg/kg, n = 3, read-out: Biodistribution, Muscle, competition study
[22] = pancreas, 100 pmol, 100 pmol, n = 4, read-out: Biodistribution, Pancreas
[23] = pancreas, 3.62 mg/kg, coinjection of natLu-RM2 3.62 mg/kg, n = 3, read-out: Biodistribution, Pancreas, competition study
[24] = spleen, 100 pmol, 100 pmol, n = 4, read-out: Biodistribution, Spleen
[25] = spleen, 3.62 mg/kg, coinjection of natLu-RM2 3.62 mg/kg, n = 3, read-out: Biodistribution, Spleen, competition study
[26] = stomach, 100 pmol, 100 pmol, n = 4, read-out: Biodistribution, Stomach
[27] = stomach, 3.62 mg/kg, coinjection of natLu-RM2 3.62 mg/kg, n = 3, read-out: Biodistribution, Stomach, competition study
[28] = tumor (PC-3), 100 pmol, PC-3 tumor, 100 pmol, n = 4, read-out: Biodistribution, Tumor
[29] = tumor (PC-3), 3.62 mg/kg, PC-3 tumor, coinjection of natLu-RM2 3.62 mg/kg, n = 3, read-out: Biodistribution, Tumor, competition study

| SMILES | tissue uptake at 24 h [1, 4] | tissue uptake at 24 h [1, 5] | tissue uptake at 24 h [1, 6] | tissue uptake at 24 h [1, 7] | tissue uptake at 24 h [1, 8] | tissue uptake at 24 h [1, 9] | tissue uptake at 24 h [1, 10] | tissue uptake at 24 h [1, 11] | tissue uptake at 24 h [1, 12] | tissue uptake at 24 h [1, 13] | tissue uptake at 24 h [1, 14] | tissue uptake at 24 h [1, 15] | tissue uptake at 24 h [1, 16] | tissue uptake at 24 h [1, 17] | tissue uptake at 24 h [1, 18] | tissue uptake at 24 h [1, 19] | tissue uptake at 24 h [1, 20] | tissue uptake at 24 h [1, 21] | tissue uptake at 24 h [1, 22] | tissue uptake at 24 h [1, 23] | other results |
| --- | --- | --- | --- | --- | --- | --- | --- | --- | --- | --- | --- | --- | --- | --- | --- | --- | --- | --- | --- | --- | --- |
| CC(C)C[C@H](NC(=O)C[C@H](O)[C@H](CC(C)C)NC(=O)[C@H](Cc1c[nH]cn1)NC(=O)CNC(=O)[C@@H](NC(=O)[C@H](C)NC(=O)[C@](C)(Cc1c[nH]c2ccccc12)NC(=O)[C@H](CCC(N)=O)NC(=O)[C@@H](Cc1ccccc1)NC(=O)CN1CCC(NC(=O)CN2CCN(CC(=O)O)CCN(CC(=O)O)CCN(CC(=O)O)CC2)CC1)C(C)C)C(N)=O [^177Lu-AMTG, ^177Lu-α-Me-L-Trp^8-RM2, metal not drawn] | 0.46 ± 0.22 %ID/g | 0.09 ± 0.07 %ID/g | 0.004 ± 0.001 %ID/g | 0.003 %ID/g | 0.05 ± 0.02 %ID/g | 0.05 ± 0.03 %ID/g | 0.02 %ID/g | 0.02 ± 0.01 %ID/g | 0.2 ± 0.1 %ID/g | 0.27 ± 0.21 %ID/g | 1.2 to 1.9 %ID/g | 1.17 ± 0.26 %ID/g | 0.14 ± 0.03 %ID/g | 1.4 ± 0.86 %ID/g | 0.04 ± 0.01 %ID/g | 0.27 ± 0.15 %ID/g | 0.005 ± 0.003 %ID/g | 0.003 ± 0.002 %ID/g | 0.56 ± 0.3 %ID/g | 0.05 ± 0.03 %ID/g | Higher activity level in PC-3 tumor than for 177Lu-RM2 [1]: 35%; tissue uptake at 24 h [1, 24]: 0.1 ± 0.02 %ID/g; tissue uptake at 24 h [1, 25]: 2.97 ± 2.01 %ID/g; tissue uptake at 24 h [1, 26]: 0.1 ± 0.04 %ID/g; tissue uptake at 24 h [1, 27]: 0.04 ± 0.02 %ID/g; tissue uptake at 24 h [1, 28]: 11.5 %ID/g; tissue uptake at 24 h [1, 29]: 0.33 ± 0.2 %ID/g; Intact tracer in murine plasma in vivo [2]: 92.9% ± 0.7%; Intact tracer in murine urine in vivo [2]: 68.2% ± 3.1%; Intact compound in human plasma in vitro [3]: 77.7% ± 8.7% |
| CC(C)C[C@H](NC(=O)C[C@H](O)[C@H](CC(C)C)NC(=O)[C@H](Cc1c[nH]cn1)NC(=O)CNC(=O)[C@@H](NC(=O)[C@H](C)NC(=O)[C@](C)(Cc1c[nH]c2ccccc12)NC(=O)[C@H](CCC(N)=O)NC(=O)[C@@H](Cc1ccccc1)NC(=O)CN1CCC(NC(=O)CCC(C(=O)O)N2CCN(CC(=O)O)CCN(CC(=O)O)CCN(CC(=O)O)CC2)CC1)C(C)C)C(N)=O (stereo partly drawn) [^177Lu-AMTG2, ^177Lu-DOTAGA-α-Me-L-Trp^8-RM2, metal not drawn] | 0.26 ± 0.14 %ID/g | 0.03 ± 0.02 %ID/g | 0.011 %ID/g | 0.002 ± 0.001 %ID/g | 0.22 ± 0.05 %ID/g | 0.02 ± 0.01 %ID/g | 0.03 ± 0.02 %ID/g | 0.02 ± 0.01 %ID/g | 0.3 ± 0.04 %ID/g | 0.34 ± 0.35 %ID/g | 1.2 to 1.9 %ID/g | 1.63 ± 0.44 %ID/g | 0.32 ± 0.14 %ID/g | 0.74 ± 0.44 %ID/g | 0.05 ± 0.01 %ID/g | 1.18 ± 1.49 %ID/g | 0.003 ± 0.003 %ID/g | 0.003 ± 0.002 %ID/g | 0.95 ± 0.14 %ID/g | 0.07 ± 0.01 %ID/g | tissue uptake at 24 h [1, 24]: 0.15 ± 0.07 %ID/g; tissue uptake at 24 h [1, 25]: 1.06 ± 1.08 %ID/g; tissue uptake at 24 h [1, 26]: 0.12 ± 0.03 %ID/g; tissue uptake at 24 h [1, 27]: 0.04 ± 0.01 %ID/g; tissue uptake at 24 h [1, 28]: 7.97 ± 1.34 %ID/g; tissue uptake at 24 h [1, 29]: 0.36 ± 0.25 %ID/g; Intact tracer in murine plasma in vivo [2]: 77.6% ± 3.1%; Intact tracer in murine urine in vivo [2]: 61.6% ± 1.6%; Intact compound in human plasma in vitro [3]: 66.2% ± 5.1% |
